Assay results published in patent US8349804B2, “Bone graft and scaffolding materials immobilized with type I collagen binding peptides” (Seoul National University Industry Foundation, priority 2006, dated 2013).

Legend:
[1] = Test of calcification (calcein staining, confocal microscopy); assay type: cell-based, human; conditions: cultured 14 days in medium for forming hard tissue; compared with group without peptides
Protocol: The bone graft materials prepared in Examples 2 was added to a medium for forming a hard tissue containing calcein (fluorescent marker of calcium), and human mesenchymally derived stem cells (C2Cl2: ATCC CRL-1772) were cultured for 14 days. The cultured osteoblasts werefixed with 2% glutaraldehyde solution and treated with 1% triton X-100 and then added with a fluorescent-labeled phalloidin solution, thus staining the fixed cytoplasm.

type I collagen = experiment: Affinity of peptide to type I collagen by Biacore X; assay type: binding; conditions: type I collagen bound to CM5 chip, peptide dissolved to be 4 μmol, ranking among SEQ ID NO: 1-3
Excerpt: The synthesized peptide's affinity to type I collagen was examined using Biacore X (Biacore Co., Sweden). After the type I collagen was bound to CM5 chip, the amount of peptides binding with collagen was quantitated while flowing the prepared peptide dissolved to be 4 μmol into micro-channels of Biacore X (FIG. 1).

[2] = tested on: Human-osteocarcoma cells (KCLB No. 21543); experiment: Test of cell adhesion on peptide-immobilized bone graft material; assay type: cell-based; conditions: phalloidin staining, confocal laser scanning microscope
Protocol: […] The bone graft materials with the cultured human-osteocarcoma cell were fixed with 2% glutaraldehyde solution. The fixed bone graft materials were treated with 1% triton X-100 and then added with a fluorescent-labeled phalloidin solution, thus staining the attached cytoplasm.

ERK = experiment: Western blot of phosphorylated ERK (pERK); assay type: cell-based, human; conditions: C2C12 cells treated with peptides for 30 min; compared with non-treated cells (NT)
Protocol: In order to examine the expression of differentiation marker protein in osteoblasts cultured on the surface of the bone graft material on which peptides added with cysteine at each N-terminal end of amino acid sequences of SEQ ID NOs: 1, 2 and 3, prepared in example 2 according to the present invention were immobilized, the peptides were exposed to human mesenchymally derived stem cells (C2C12) for 30 min, and collected to measure the amount of ERK protein, a marker proteins involved in intracellular signal transfer, by Western blot.
The human mesenchymally derived stem cells were transplanted to 60 mm of petridish, treated with peptides for 30 min. Whole intracellular protein was extracted and quantitated by Bradford method. 40[…] of protein was electrophoresed on acrylamide gel and transferred to nitrocellulose membrane, and ERK, intracellular signal transmission protein within cell was reacted with the antibody of phosphorylated ERK (pERK), followed by reacting with the second antibody labeled with a marker. The membrane was developed to observe the protein bands and measure densities thereof (FIG. 4).

type I collagen, sequence (P02452 162-1218 limits assumed): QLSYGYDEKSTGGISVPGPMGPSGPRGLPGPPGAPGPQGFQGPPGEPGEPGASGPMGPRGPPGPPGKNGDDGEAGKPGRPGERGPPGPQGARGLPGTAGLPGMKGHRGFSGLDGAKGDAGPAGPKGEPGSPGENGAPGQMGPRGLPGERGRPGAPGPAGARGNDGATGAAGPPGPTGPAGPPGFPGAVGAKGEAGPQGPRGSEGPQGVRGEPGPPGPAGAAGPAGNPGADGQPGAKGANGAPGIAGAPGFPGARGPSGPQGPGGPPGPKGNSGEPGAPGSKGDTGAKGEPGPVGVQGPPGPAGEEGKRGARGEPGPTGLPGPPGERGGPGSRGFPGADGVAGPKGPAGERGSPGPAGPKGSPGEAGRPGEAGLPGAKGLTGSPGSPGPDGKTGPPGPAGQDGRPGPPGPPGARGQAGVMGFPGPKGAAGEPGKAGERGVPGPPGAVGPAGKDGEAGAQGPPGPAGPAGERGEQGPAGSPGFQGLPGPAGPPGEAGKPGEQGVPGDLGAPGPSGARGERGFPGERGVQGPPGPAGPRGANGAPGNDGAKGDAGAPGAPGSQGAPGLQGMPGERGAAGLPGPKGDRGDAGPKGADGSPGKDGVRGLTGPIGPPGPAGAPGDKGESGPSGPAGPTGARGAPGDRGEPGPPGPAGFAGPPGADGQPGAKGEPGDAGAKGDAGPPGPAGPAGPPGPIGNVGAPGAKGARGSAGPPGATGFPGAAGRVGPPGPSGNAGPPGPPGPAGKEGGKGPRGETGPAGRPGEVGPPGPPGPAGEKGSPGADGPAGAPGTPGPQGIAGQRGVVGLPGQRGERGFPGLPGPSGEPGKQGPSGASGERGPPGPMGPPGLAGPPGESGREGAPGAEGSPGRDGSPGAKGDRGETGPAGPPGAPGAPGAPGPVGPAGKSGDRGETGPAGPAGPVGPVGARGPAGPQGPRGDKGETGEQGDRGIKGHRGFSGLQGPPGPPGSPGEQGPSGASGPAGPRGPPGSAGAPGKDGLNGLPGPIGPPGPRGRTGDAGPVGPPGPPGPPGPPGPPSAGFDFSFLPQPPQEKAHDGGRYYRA
type I collagen, sequence (P08123 80-1119 limits assumed, further chain): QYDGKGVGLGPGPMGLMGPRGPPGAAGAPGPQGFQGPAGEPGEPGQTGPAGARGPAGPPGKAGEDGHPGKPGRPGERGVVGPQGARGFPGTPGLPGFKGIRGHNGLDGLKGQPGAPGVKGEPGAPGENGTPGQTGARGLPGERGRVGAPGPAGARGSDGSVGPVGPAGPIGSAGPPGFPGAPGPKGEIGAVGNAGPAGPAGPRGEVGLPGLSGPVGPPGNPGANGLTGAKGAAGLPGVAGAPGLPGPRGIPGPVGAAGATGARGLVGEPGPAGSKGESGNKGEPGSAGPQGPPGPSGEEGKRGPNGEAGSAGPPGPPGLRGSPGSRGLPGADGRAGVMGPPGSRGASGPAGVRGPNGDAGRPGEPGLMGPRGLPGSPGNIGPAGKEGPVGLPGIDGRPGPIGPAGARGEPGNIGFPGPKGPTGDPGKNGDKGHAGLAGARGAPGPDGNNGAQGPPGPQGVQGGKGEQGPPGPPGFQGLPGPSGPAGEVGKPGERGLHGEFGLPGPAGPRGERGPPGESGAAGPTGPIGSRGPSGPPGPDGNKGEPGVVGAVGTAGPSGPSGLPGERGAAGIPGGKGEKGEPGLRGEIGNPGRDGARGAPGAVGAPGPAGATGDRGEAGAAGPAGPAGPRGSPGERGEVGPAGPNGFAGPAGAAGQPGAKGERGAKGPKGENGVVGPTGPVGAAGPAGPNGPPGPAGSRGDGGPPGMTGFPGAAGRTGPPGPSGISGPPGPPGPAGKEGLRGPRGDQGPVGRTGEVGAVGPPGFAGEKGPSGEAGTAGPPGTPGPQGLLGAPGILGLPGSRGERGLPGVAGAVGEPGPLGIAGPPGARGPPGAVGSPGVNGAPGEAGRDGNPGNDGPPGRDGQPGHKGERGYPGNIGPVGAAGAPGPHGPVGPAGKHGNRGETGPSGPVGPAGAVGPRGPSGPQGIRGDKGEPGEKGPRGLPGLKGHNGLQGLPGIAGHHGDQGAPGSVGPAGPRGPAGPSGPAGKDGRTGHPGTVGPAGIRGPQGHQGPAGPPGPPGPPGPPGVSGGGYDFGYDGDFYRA

affinity to type I collagen (amount of peptide binding with collagen) (type I collagen) | Substance | calcium adhesion (calcein fluorescence), calcification of cells [1] | cell adhesion pattern on coated surface [2] | expression of phosphorylated ERK (pERK) (ERK)
highest affinity | YRLKRSKSKMFHVSNAQYPGA (listed as Oryctolagus cuniculus) [SEQ ID NO: 3] | much more fluorescence | stable adhesion of the cells | significantly increased
– | Bovine serum albumin [BSA, reference compound] | – | spherical and unstable adhesion aspect of the cells | –
lowest affinity | KMFHVSNAQYPGA (listed as Oryctolagus cuniculus) [SEQ ID NO: 2] | much more fluorescence | stable adhesion of the cells | significantly increased
– | YRLKRSKS (listed as Oryctolagus cuniculus) [SEQ ID NO: 1] | much more fluorescence | stable adhesion of the cells | significantly increased
